Tests used:
full length (FL) LXRβ = biological target: T1, full length (FL) LXRβ (Homo sapiens, UniProt P55055, DUP175-175); assay: LXR Gal4 reporter transient transfection assay (FL-M2H Gal4β); assay type: cell-based; conditions: HEK293 cells, full length LXRβ; read-out: FL-M2H Gal4β (EC50 range)
T1 construct: the full length (FL) proteins of LXRα (amino acids 1-447); NP005684; NP009052; expressed in transfected cells; host or cells: HEK293
T1 sequence (P55055 with tags, fused parts or gaps DUP175-175): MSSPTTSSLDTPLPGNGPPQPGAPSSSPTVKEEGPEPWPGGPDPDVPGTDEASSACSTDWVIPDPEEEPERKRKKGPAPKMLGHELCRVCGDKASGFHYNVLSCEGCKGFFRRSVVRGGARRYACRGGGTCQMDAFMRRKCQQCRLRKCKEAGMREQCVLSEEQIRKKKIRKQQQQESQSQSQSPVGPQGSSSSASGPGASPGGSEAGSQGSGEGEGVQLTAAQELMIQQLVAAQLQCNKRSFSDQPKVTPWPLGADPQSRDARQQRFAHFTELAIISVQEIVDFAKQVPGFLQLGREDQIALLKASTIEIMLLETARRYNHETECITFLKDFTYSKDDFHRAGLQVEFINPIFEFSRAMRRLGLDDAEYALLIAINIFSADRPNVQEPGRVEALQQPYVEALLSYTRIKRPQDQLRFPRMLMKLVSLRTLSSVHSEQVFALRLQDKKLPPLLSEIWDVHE
How it was run: (§1)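 Cells (HEK293, 3.5×10^4/well) were plated 16-20 h, transfected with LXR, cofactor and reporter plasmids, treated with compound after 4 h, and lysed after a further 16 h. Interaction of LXR constructs with SRC1 or NCoR is detected by GAL4-driven Firefly luciferase.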

full length (FL) LXRα = biological target: T2, full length (FL) LXRα (Homo sapiens, UniProt Q13133); assay: LXR Gal4 reporter transient transfection assay (FL-M2H Gal4α); assay type: cell-based; conditions: HEK293 cells, full length LXRα; read-out: FL-M2H Gal4α (EC50 range)
T2 construct: the full length (FL) proteins of LXRα (amino acids 1-447); NP005684; expressed in transfected cells; host or cells: HEK293
T2 sequence (Q13133 1-447): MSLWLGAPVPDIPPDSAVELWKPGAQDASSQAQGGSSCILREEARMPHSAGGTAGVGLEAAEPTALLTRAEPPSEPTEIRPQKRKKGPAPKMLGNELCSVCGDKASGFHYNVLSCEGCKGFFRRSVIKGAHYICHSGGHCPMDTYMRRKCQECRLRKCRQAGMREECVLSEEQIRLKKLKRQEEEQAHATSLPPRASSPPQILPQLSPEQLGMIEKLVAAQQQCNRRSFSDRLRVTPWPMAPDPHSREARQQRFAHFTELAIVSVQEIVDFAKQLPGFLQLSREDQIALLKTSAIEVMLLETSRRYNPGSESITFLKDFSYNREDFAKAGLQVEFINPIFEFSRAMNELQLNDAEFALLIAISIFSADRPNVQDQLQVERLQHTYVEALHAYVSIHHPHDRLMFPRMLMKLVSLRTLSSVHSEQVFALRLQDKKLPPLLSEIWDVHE
How it was run: as §1

[1] = biological target: T3, LXRβ ligand-binding domain (Homo sapiens, UniProt P55055, DUP175-175); assay: TR-FRETβ activity assay (NCoA3 coactivator peptide recruitment); assay type: biochemical; conditions: TR-FRET, 1 μM 24(S)-25-epoxycholesterol prestimulation; read-out: FRETβ (EC50 range)
T3 construct: amino acids 156-461; NP009052; made in house; host or cells: E. coli
T3 sequence (P55055 with tags, fused parts or gaps DUP175-175 limits assumed): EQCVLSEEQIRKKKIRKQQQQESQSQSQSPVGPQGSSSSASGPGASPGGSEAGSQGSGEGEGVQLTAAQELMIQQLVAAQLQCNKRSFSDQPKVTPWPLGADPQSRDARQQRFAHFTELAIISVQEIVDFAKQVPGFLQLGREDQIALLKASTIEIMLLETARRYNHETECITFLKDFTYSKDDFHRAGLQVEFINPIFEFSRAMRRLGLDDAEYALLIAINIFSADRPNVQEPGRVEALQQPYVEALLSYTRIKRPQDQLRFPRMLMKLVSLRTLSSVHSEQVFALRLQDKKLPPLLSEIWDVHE
How it was run: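 Inverse agonism assessed by loss of coactivator recruitment, read as TR-FRET 665/615 nm after 1 h equilibration at 4 °C, in triplicate. Ten-point titration from 50 μM to 0.002 μM against LXRβ LBD (76 nM, GST fusion) prestimulated with 1 μM 24(S)-25-epoxycholesterol, with 400 nM NCoA3 peptide, pH 6.8. Sulfonyl acetic acids kept as 20 mM DMSO stocks with 100 mM TFA.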

SMILES | EC50 (full length (FL) LXRβ) | EC50 (full length (FL) LXRα) | EC50 [1]
O=C(O)c1ccc(-c2cccc(-c3c(-c4ccccc4C4COC4)c4cnccc4n3S(=O)(=O)c3ccc(C(F)F)cc3)c2)c(Cl)c1 [8/3] | < 100 nM | 100 to 1000 nM | 100 to 1000 nM
N#Cc1ccccc1-c1c(-c2cccc(-c3ccc(C(=O)O)cc3Cl)c2)n(S(=O)(=O)c2ccc(C(F)F)cc2)c2cccnc12 [8/7] | < 100 nM | 100 to 1000 nM | 100 to 1000 nM
N#Cc1sccc1-c1c(-c2cccc(-c3ccc(C(=O)NCCS(=O)(=O)O)cc3Cl)c2)n(S(=O)(=O)c2ccc(C(F)F)cc2)c2ccc(F)cc12 [10/3] | < 100 nM | < 100 nM | < 100 nM
O=C(NCCS(=O)(=O)O)C1CC1c1cccc(-c2c(-c3c(Cl)cccc3Cl)c3cc(F)ccc3n2S(=O)(=O)c2ccc(C(F)F)cc2)c1 (stereo not drawn) [10/4] | < 100 nM | 100 to 1000 nM | < 100 nM
Cc1ccc(S(=O)(=O)n2c(-c3cccc(-c4ccc(C(=O)O)cc4Cl)c3)c(-c3cccc(F)c3C#N)c3cc(F)ccc32)cc1 [11/1] | < 100 nM | < 100 nM | < 100 nM
Cc1ccc(S(=O)(=O)n2c(-c3cccc(-c4ccc(C(=O)O)cc4Cl)c3)c(-c3cccc(C)c3C#N)c3cc(F)ccc32)cc1 [11/2] | < 100 nM | < 100 nM | < 100 nM
COc1cccc(-c2c(-c3cccc(-c4ccc(C(=O)O)cc4Cl)c3)n(S(=O)(=O)c3ccc(C)cc3)c3ccc(F)cc23)c1C#N [11/3] | < 100 nM | < 100 nM | < 100 nM
Cc1ccc(S(=O)(=O)n2c(-c3cccc(-c4ccc(C(=O)O)cc4Cl)c3)c(-c3ccc(C)cc3C#N)c3cc(F)ccc32)cc1 [11/4] | < 100 nM | < 100 nM | 100 to 1000 nM
Cc1ccc(S(=O)(=O)n2c(-c3cccc(-c4ccc(C(=O)O)cc4Cl)c3)c(-c3cc(C)ccc3C#N)c3cc(F)ccc32)cc1 [11/5] | < 100 nM | < 100 nM | < 100 nM
Cc1ccc(S(=O)(=O)n2c(-c3cccc(-c4ccc(C(=O)O)cc4Cl)c3)c(-c3c(C)cccc3C#N)c3cc(F)ccc32)cc1 [11/6] | < 100 nM | < 100 nM | < 100 nM
N#Cc1sccc1-c1c(-c2cccc(-c3cc(F)c(C(=O)O)cc3Cl)c2)n(S(=O)(=O)c2ccc(CF)cc2)c2ccc(F)cc12 [11/7] | < 100 nM | < 100 nM | < 100 nM
N#Cc1sccc1-c1c(-c2cccc(-c3cc(F)c(C(=O)O)cc3Cl)c2)n(S(=O)(=O)c2ccc(C(F)F)cc2)c2ccc(F)cc12 [11/8] | < 100 nM | < 100 nM | < 100 nM
N#Cc1scnc1-c1c(-c2cccc(-c3cc(F)c(C(=O)O)cc3Cl)c2)n(S(=O)(=O)c2ccc(C(F)F)cc2)c2ccc(F)cc12 [11/9] | < 100 nM | < 100 nM | < 100 nM
N#Cc1ccncc1-c1c(-c2cccc(-c3cc(F)c(C(=O)O)cc3Cl)c2)n(S(=O)(=O)c2ccc(C(F)F)cc2)c2ccc(F)cc12 [11/10] | < 100 nM | < 100 nM | < 100 nM
Cc1cccc(C)c1-c1c(-c2cccc(-c3ccc(C(=O)O)cc3Cl)c2)n(S(=O)(=O)c2ccc(C(F)F)cc2)c2ccc(F)cc12 [11/14] | < 100 nM | < 100 nM | < 100 nM
O=C(O)c1ccc(-c2cccc(-c3c(-c4c(C(F)F)cccc4C(F)F)c4cc(F)ccc4n3S(=O)(=O)c3ccc(C(F)F)cc3)c2)c(Cl)c1 [11/15] | < 100 nM | < 100 nM | < 100 nM
N#Cc1sccc1-c1c(-c2cccc(-c3ccc(C(=O)O)cc3Cl)c2)n(S(=O)(=O)c2ccc(F)cc2)c2ccc(F)cc12 [11/18] | < 100 nM | < 100 nM | 100 to 1000 nM

SMILES | EC50 (full length (FL) LXRβ) | EC50 (full length (FL) LXRα) | EC50 [1]
Cc1ccc(S(=O)(=O)n2c(-c3cccc(-c4ccc(C(=O)O)cc4Cl)c3)c(-c3ccsc3C#N)c3cc(F)ccc32)cc1F [11/19] | < 100 nM | < 100 nM | 100 to 1000 nM
N#Cc1ccc(S(=O)(=O)n2c(-c3cccc(-c4ccc(C(=O)O)cc4Cl)c3)c(-c3ccsc3C#N)c3cc(F)ccc32)cc1 [11/20] | < 100 nM | < 100 nM | 100 to 1000 nM
O=C(O)c1ccc(-c2cccc(-c3c(-c4ccsc4C(F)F)c4cc(F)ccc4n3S(=O)(=O)c3ccc(Cl)cc3)c2)c(Cl)c1 [11/21] | < 100 nM | < 100 nM | < 100 nM
O=C(O)c1ccc(-c2cccc(-c3c(-c4ccsc4C(F)(F)F)c4cc(F)ccc4n3S(=O)(=O)c3ccc(C(F)F)cc3)c2)c(Cl)c1 [11/22] | < 100 nM | < 100 nM | < 100 nM
Cc1n[nH]c(C)c1-c1c(-c2cccc(-c3ccc(C(=O)O)cc3Cl)c2)n(S(=O)(=O)c2ccc(C(F)F)cc2)c2ccc(F)cc12 [11/24] | 100 to 1000 nM | 100 to 1000 nM | 100 to 1000 nM
O=C(O)c1ccc(-c2cccc(-c3c(-c4cn[nH]c4C(F)(F)F)c4cc(F)ccc4n3S(=O)(=O)c3ccc(C(F)F)cc3)c2)c(Cl)c1 [11/25] | < 100 nM | 100 to 1000 nM | 100 to 1000 nM
N#Cc1ccccc1-c1c(-c2cccc(-c3ccc(C(=O)O)c4c3OCO4)c2)n(S(=O)(=O)c2ccc(C(F)F)cc2)c2ccc(F)cc12 [11/28] | < 100 nM | < 100 nM | < 100 nM
COc1cc(C(=O)O)ccc1-c1cccc(-c2c(-c3ccccc3C#N)c3cc(F)ccc3n2S(=O)(=O)c2ccc(C(F)F)cc2)c1 [11/29] | < 100 nM | < 100 nM | < 100 nM
N#Cc1cc(C(=O)O)ccc1-c1cccc(-c2c(-c3ccccc3C#N)c3cc(F)ccc3n2S(=O)(=O)c2ccc(C(F)F)cc2)c1 [11/30] | < 100 nM | < 100 nM | < 100 nM
N#Cc1ccccc1-c1c(-c2cccc(-c3ccc(C(=O)O)cc3F)c2)n(S(=O)(=O)c2ccc(C(F)F)cc2)c2ccc(F)cc12 [11/31] | < 100 nM | < 100 nM | < 100 nM
N#Cc1ccccc1-c1c(-c2cccc(-c3ccc(C(=O)O)c(O)c3Cl)c2)n(S(=O)(=O)c2ccc(C(F)F)cc2)c2ccc(F)cc12 [11/32] | < 100 nM | < 100 nM | < 100 nM
N#Cc1cccc(F)c1-c1c(-c2cccc(-c3ccc(C(=O)O)cc3Cl)c2)n(S(=O)(=O)c2ccc(C(F)F)cc2)c2ccc(F)cc12 [11/34] | < 100 nM | < 100 nM | < 100 nM
Cc1cccc(C(F)F)c1-c1c(-c2cccc(-c3ccc(C(=O)O)cc3Cl)c2)n(S(=O)(=O)c2ccc(C(F)F)cc2)c2ccc(F)cc12 [11/38] | < 100 nM | < 100 nM | < 100 nM
COc1cccnc1-c1c(-c2cccc(-c3ccc(C(=O)O)cc3Cl)c2)n(S(=O)(=O)c2ccc(C(F)F)cc2)c2ccc(F)cc12 [11/40] | < 100 nM | < 100 nM | 100 to 1000 nM
O=C(O)c1ccc(-c2cccc(-c3c(-c4ncccc4OC(F)F)c4cc(F)ccc4n3S(=O)(=O)c3ccc(C(F)F)cc3)c2)c(Cl)c1 [11/41] | < 100 nM | < 100 nM | < 100 nM
N#CC1=C(c2c(-c3cccc(-c4ccc(C(=O)O)cc4Cl)c3)n(S(=O)(=O)c3ccc(C(F)F)cc3)c3ccc(F)cc23)CCCC1 [11/42] | 100 to 1000 nM | 100 to 1000 nM | > 10000 nM

From US11618747B2, “LXR modulators with bicyclic core moiety” (OrsoBio, Inc., priority 2018, dated 2023)
